We go through one compound from patent US20130281313A1, “PROGNOSTIC AND/OR PREDICTIVE BIOMARKERS AND BIOLOGICAL APPLICATIONS THEREOF” (INSTITUT GUSTAVE ROUSSY, priority 2010, published 2013).

Molecules are shown by their SMILES.

What all share (assay type): cell-based, human
For test [1], the system named is A549 cells. In words: Cytofluorometric assessment of cell death (DiOC6(3)/PI co-staining). The procedure: Unless otherwise specified, chemicals were purchased from Sigma-Aldrich (St. Louis, USA), culture media and supplements for cell culture from Gibco-Invitrogen (Carlsbad, USA) and plasticware from Corning (Corning, USA). […] Orlistat (Xenical®) was obtained from Roche (Basel, Switzerland). […] Undissolved material was removed by two sequential rounds of centrifugation at 12,000 G (5 min, room temperature, RT), supernatants were collected and stored at −80° C. under protection from light until use. In low-throughput experiments, all cell lines were treated with 2.5 mM pyridoxine (PN), exception made for A549 cells that received 5 mM PN.
To avoid depleting the siRNA library of selected sequences, siRNAs for validation experiments were purchased as custom molecules from Sigma-Aldrich. For low-throughput experiments, (see below for the transfection protocols employed in the siRNA screen), siRNA were transfected in A549 cells with Oligofectamine™ reagent (Invitrogen), following the manufacturer's instructions. Transfection with a non-targeting siRNA (siUNR) was employed as a negative control condition. Forty-eight hours after transfection, siRNA-mediated target downregulation was assessed by immunoblotting (see below).
All cytofluorometric determinations were carried out a FACSCalibur or a FACScan cytofluorometer (BD Biosciences, San Jose, USA) equipped with a 70 μm nozzle.
First line statistical analysis of cytofluorometric results was performed by using the CellQuest™ software (BD Biosciences), by gating on the events characterized by normal forward scatter and side scatter parameters. Apoptosis- and cell cycle-related data were further analyzed with Microsoft Excel (Microsoft Co., Redmond, USA) and statistical significance was assessed by means of two-tailed Student's t test (p<0.05).

In test [2] the test system is CDDP-resistant A549 clones (A549 #1-3), HCC827, H1299, H1650, H1975, HeLa, U2OS and WT HCT 116 cells. In words: Cytofluorometric assessment of cell death, CDDP alone or combined with PN, panel of cell lines. The settings on record: sub-apoptotic dose of CDDP alone or combined with 2.5 mM PN. The source says: (A-C) Cytofluorometric assessment of cell death induced by the indicated sub-apoptotic dose of cisplatin (CDDP) alone or combined with PN in 3 distinct CDDP-resistant A549 clones (A549 #1-3, A), in 4 non-small cell lung cancer (NSCLC) cell lines other than A549 (HCC827, H1299, H1650 and H1975 cells, B), in cervical carcinoma HeLa cells, in osteosarcoma U2OS cells as well as in wild type (WT) or TP53^−/− colon carcinoma HCT 116 cells (C).
Unless otherwise specified, chemicals were purchased from Sigma-Aldrich (St. Louis, USA), culture media and supplements for cell culture from Gibco-Invitrogen (Carlsbad, USA) and plasticware from Corning (Corning, USA). Anti-human interleukin 6 (IL6, goat antiserum #AB-206-A) and IL6 receptor (IL6R, goat antiserum #AB-227-A) neutralizing antibodies were purchased by R&D Systems (Minneapolis, USA). Orlistat (Xenical®) was obtained from Roche (Basel, Switzerland). […]
To measure apoptosis-related parameters, living cells were labeled for 30 min at +37° C. with 40 nM 3,3′dihexyloxalocarbocyanine iodide (DiOC6(3), from Molecular Probes-Invitrogen, Eugene, USA), which quantifies the mitochondrial transmembrane potential (Δψm), plus 1 μg/mL propidium iodide (PI), which only accumulates in cells with ruptured plasma membrane {Galluzzi, 2009; Galluzzi, 2008; Galluzzi, 2007}. […]

The subject of test [3] is A549 cells. As to the kind of experiment: Real-time measurements of cell adherence (impedance). To be noted: 50 μM CDDP alone or with 5 mM PN. The procedure: 5×10^3 A549 cells were seeded in standard culture conditions on 96-well plates coated with gold microelectrodes (E-plates™, Roche) and let adapt and recover growth for 40 h. Thereafter, cells were treated with 50 μM CDDP alone or in association with 5 mM PN for additional 48 h. Since plating, the adherence of cells to the plate was monitored every 15 min (as a function of plate impedance) by means of an xCELLigence™ Real-Time Cell Analyzer (RTCA, from Roche).
Cell adherence was measured in 3 parallel wells for each experimental condition.
Results are reported as mean cell index (CI) values, which constitute an indication of electrode impedance, ±SEM.

Test [4] deals with A549 cells. In words: Intracellular levels of CDDP in cell lysates. The settings on record: 24 h, 25 μM CDDP alone or with PN and/or GSH, normalized to protein content. The protocol:
(E,F) Intracellular levels of CDDP (normalized to protein content) in lysates from untransfected A549 cells (D) or A549 cells transfected with a PDXK-targeting siRNA (E), treated for 24 h with 25 μM CDDP alone or in combination with PN and/or GSH. Mean±SEM (n=6). *=p<0.05 (Studen's t test), as compared to untransfected (D) or siUNR transfected (E) cells treated with CDDP only. n.s.=non significant (Student's t test), as compared to cells treated with the same concentration of GSH (D) or to siPDXK-transfected cells treated with CDDP only (E).

Turning to `Cc1ncc(CO)c(CO)c1O` [PN, pyridoxine], the “CDDP-induced cell death upon acute addition of the vitamer (DiOC6(3)/PI co-staining)” value in test [1] (A549 cells, 25 μM CDDP, co-treated for 48 h) is reported as “exacerbated CDDP-induced cell death”. The “effects of PN on CDDP-induced cell death upon PDXK depletion” value in test [1] (siPDXK-transfected A549 cells, CDDP) is recorded as “lost upon PDXK depletion”. The “chemosensitization to CDDP in other cancer cell lines” value in test [2] is “exerted chemosensitizing effects”. The “CDDP-induced cell death measured as impedance caused by attached, viable cells” value in test [3] is “exacerbated CDDP-induced cell death”. Besides, the “intracellular accumulation of CDDP” value in test [4] is “significantly augmented by PN in a PDXK-dependent fashion”.
